Test results published in PubChem BioAssay (NCI).
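Compound exposure: 48 hours, 5 concentrations, 96-well plates. TGI denotes the concentration required for complete inhibition of growth.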

Experiments:
Assay in all cases: growth of human tumour cells (NCI), 48 h
[1] = system: 786-0 renal
[2] = system: A498 renal
[3] = system: A549 NSCLC
[4] = system: ACHN renal
[5] = system: BT-549 breast
[6] = system: CAKI-1 renal
[7] = system: CCRF-CEM leukemia
[8] = system: COLO 205 colon
[9] = system: DU-145 prostate
[10] = system: EKVX NSCLC
[11] = system: HCT-116 colon
[12] = system: HCT-15 colon
[13] = system: HOP-62 NSCLC
[14] = system: HOP-92 NSCLC
[15] = system: HS 578T breast
[16] = system: HT29 colon
[17] = system: IGROV1 ovarian
[18] = system: K-562 leukemia
[19] = system: KM12 colon
[20] = system: LOX IMVI melanoma
[21] = system: M14 melanoma
[22] = system: MALME-3M melanoma
[23] = system: MCF7 breast
[24] = system: MDA-MB-231 breast
[25] = system: MDA-MB-435
[26] = system: MDA-N
[27] = system: MOLT-4 leukemia
[28] = system: NCI-H226 lung
[29] = system: NCI-H23 lung
[30] = system: NCI-H460 lung
[31] = system: NCI-H522 lung
[32] = system: NCI/ADR-RES ovarian
[33] = system: OVCAR-3 ovarian
[34] = system: OVCAR-4 ovarian
[35] = system: OVCAR-5 ovarian
[36] = system: OVCAR-8 ovarian
[37] = system: PC-3 prostate
[38] = system: RPMI-8226 leukemia
[39] = system: RXF 393 renal
[40] = system: SF-268 CNS
[41] = system: SF-295 CNS
[42] = system: SK-MEL-2 melanoma
[43] = system: SK-MEL-28 melanoma
[44] = system: SK-MEL-5 melanoma
[45] = system: SN12C renal
[46] = system: SNB-19 CNS
[47] = system: SW-620 colon
[48] = system: TK-10 renal
[49] = system: U251 CNS
[50] = system: UACC-257 melanoma
[51] = system: UACC-62 melanoma
[52] = system: UO-31 renal
[53] = system: HCC-2998 colon
[54] = system: HL-60(TB) leukemia
[55] = system: SF-539 CNS
[56] = system: SK-OV-3 ovarian
[57] = system: SNB-75 CNS
[58] = system: SR leukemia

With `Cc1n[nH]c(=O)n1N=C(c1ccccc1)c1ccccc1` the TGI [1] was > 100 µM, the TGI [2] was > 100 µM and the TGI [3] was > 100 µM. For the same compound, the TGI [4] was > 100 µM, the TGI [5] was > 100 µM and the TGI [6] was > 100 µM. For the same compound, the TGI [7] was > 100 µM, the TGI [8] was > 100 µM and the TGI [9] was > 100 µM. For the same compound, the TGI [10] was > 100 µM, the TGI [11] was > 100 µM and the TGI [12] was > 100 µM. The TGI [13] was > 100 µM, the TGI [14] was > 100 µM and the TGI [15] was > 100 µM. The TGI [16] was > 100 µM, the TGI [17] was > 100 µM and the TGI [18] was > 100 µM. For the same compound, the TGI [19] was > 100 µM, the TGI [20] was > 100 µM and the TGI [21] was > 100 µM. For the same compound, the TGI [22] was > 100 µM, the TGI [23] was > 100 µM and the TGI [24] was > 100 µM. For the same compound, the TGI [25] was > 100 µM, the TGI [26] was > 100 µM and the TGI [27] was > 100 µM. The TGI [28] was > 100 µM, the TGI [29] was > 100 µM and the TGI [30] was > 100 µM. The TGI [31] was > 100 µM, the TGI [32] was > 100 µM and the TGI [33] was > 100 µM. The TGI [34] was > 100 µM, the TGI [35] was > 100 µM and the TGI [36] was > 100 µM. The TGI [37] was > 100 µM, the TGI [38] was > 100 µM and the TGI [39] was > 100 µM. For the same compound, the TGI [40] was > 100 µM, the TGI [41] was > 100 µM and the TGI [42] was > 100 µM. For the same compound, the TGI [43] was > 100 µM, the TGI [44] was > 100 µM and the TGI [45] was > 100 µM. For the same compound, the TGI [46] was > 100 µM, the TGI [47] was > 100 µM and the TGI [48] was > 100 µM. The TGI [49] was > 100 µM, the TGI [50] was > 100 µM and the TGI [51] was > 100 µM. For the same compound, the TGI [52] was > 100 µM.

In the case of `CSC(=NCCN=C(NS(=O)(=O)c1ccc(Cl)cc1)SC)NS(=O)(=O)c1ccc(Cl)cc1`, the TGI [1] is reported as > 100 µM, the TGI [2] is reported as > 100 µM and the TGI [4] is reported as > 100 µM. The TGI [6] was > 100 µM, the TGI [7] was > 100 µM and the TGI [8] was > 100 µM. For the same compound, the TGI [9] was > 100 µM, the TGI [10] was > 100 µM and the TGI [53] was > 100 µM. The TGI [11] was > 100 µM, the TGI [12] was > 100 µM and the TGI [54] was > 100 µM. The TGI [13] was 87.8 µM, the TGI [14] was 58 µM and the TGI [16] was > 100 µM. For the same compound, the TGI [17] was > 100 µM, the TGI [18] was > 100 µM and the TGI [20] was > 100 µM. For the same compound, the TGI [21] was > 100 µM, the TGI [22] was > 100 µM and the TGI [23] was > 100 µM. The TGI [24] was > 100 µM, the TGI [25] was > 100 µM and the TGI [26] was > 100 µM. For the same compound, the TGI [27] was > 100 µM, the TGI [29] was > 100 µM and the TGI [30] was > 100 µM. The TGI [32] was > 100 µM, the TGI [33] was > 100 µM and the TGI [34] was > 100 µM. The TGI [35] was > 100 µM, the TGI [36] was > 100 µM and the TGI [37] was > 100 µM. For the same compound, the TGI [38] was > 100 µM, the TGI [40] was 68.7 µM and the TGI [41] was > 100 µM. The TGI [55] was > 100 µM, the TGI [42] was > 100 µM and the TGI [43] was > 100 µM. For the same compound, the TGI [56] was 59.1 µM, the TGI [45] was > 100 µM and the TGI [46] was > 100 µM. For the same compound, the TGI [57] was 51.3 µM, the TGI [58] was > 100 µM and the TGI [47] was > 100 µM. For the same compound, the TGI [48] was > 100 µM, the TGI [49] was 42.6 µM and the TGI [50] was > 100 µM. The TGI [51] was > 100 µM and the TGI [52] was > 100 µM.
